Measured values taken from patent US20240318160A1 (Wisconsin Alumni Research Foundation, priority 2023, published 2024).
“And” between values parts separate entries of the source, which are not always exact repeats. Equal values may be shown once.

Columns and labels:
Test in all cases: TAL and PAL enzyme kinetics
Format in all cases: biochemical
Conditions in all cases: PAL assay (L-Phe), pH 8.5, 30° C.
[1] = system: Ecdeiocolea monostachya EmoPAL variant F134H (EmoPAL^F134H)
Description: (§1) A mixture containing 100 mM Tris-HCl (pH 8.5), 1% glycerol, and purified enzyme in a total volume of 50 μl was preincubated for 3 min at 30° C. […] The reactions were terminated by addition of 6N acetic acid (10 μl).
(§2) The kinetic parameters of the recombinant enzymes were determined using HPLC. Reaction mixtures containing 100 mM Tris-HCl (pH 8.5), 1% glycerol, and purified enzyme (0.15 μg for PAL assay and 1 μg for TAL assay) in a 50 μl total volume were preincubated for 3 min at 30° C. […] After 10 min and 20 min incubations for PAL and TAL assay, respectively, at 30° C., the reaction was terminated by addition of 6N acetic acid (10 μl). […] The products were quantified using calibration curves generated using authentic standards. Non-linear hyperbolic regression analyses were conducted using the Excel Solver tool to calculate Km and Vmax values.

[2] = system: Ecdeiocolea monostachya EmoPAL, wild type
Description: as §1, §2

[3] = system: Ecdeiocolea monostachya EmoPTAL variant H127F (EmoPTAL^H127F)
Description: as §1, §2

[4] = system: Ecdeiocolea monostachya EmoPTAL, wild type
Description: as §1, §2

[5] = system: Joinvillea ascendens JaPAL variant F140H (JaPAL^F140H), SEQ ID NO: 259
Description: as §1, §2

[6] = system: Joinvillea ascendens JaPAL, wild type, SEQ ID NO: 28
Description: as §1, §2

[7] = system: Joinvillea ascendens JaPTAL (SEQ ID NO: 27) variant H125F (JaPTAL^H125F)
Description: as §1, §2

[8] = system: Joinvillea ascendens JaPTAL (SEQ ID NO: 27) variant H125F/I97S (JaPTAL^H125F_I97S)
Description: as §1, §2

[9] = system: Joinvillea ascendens JaPTAL, wild type, SEQ ID NO: 27
Description: as §1, §2

[10] = system: Sorghum bicolor SbPAL variant F135H (SbPAL^F135H)
Description: as §1, §2

[11] = system: Sorghum bicolor SbPAL, wild type
Description: as §1, §2

[12] = system: Streptochaeta angustifolia SaPTAL-a variant H118F (SaPTAL-a^H118F)
Description: as §1, §2

[13] = system: Streptochaeta angustifolia SaPTAL-a, wild type
Description: as §1, §2

[14] = system: Streptochaeta angustifolia SaPTAL-b variant H126F (SaPTAL-b^H126F)
Description: as §1, §2

[15] = system: Streptochaeta angustifolia SaPTAL-b, wild type
Description: as §1, §2

N[C@@H](Cc1ccccc1)C(=O)O [L-Phe, phenylalanine] showed a Km [1] of 1310 ± 25.6 µM, a kcat [1] of 0.42 ± 0.01 s⁻¹ and a kcat/Km [1] of 320 ± 10 M⁻¹ s⁻¹. The Km [2] was 27.7 ± 1.9 µM, the kcat [2] was 1.23 ± 0.02 s⁻¹ and the kcat/Km [2] was 44700 ± 2390 M⁻¹ s⁻¹. For the same compound, the Km [3] was 3.6 ± 0.5 µM, the kcat [3] was 0.12 ± 0.00 s⁻¹ and the kcat/Km [3] was 32620 ± 2120 M⁻¹ s⁻¹. For the same compound, the Km [4] was 64.1 ± 3.1 µM, the kcat [4] was 0.48 ± 0.00 s⁻¹ and the kcat/Km [4] was 7540 ± 390 M⁻¹ s⁻¹. For the same compound, the Km [5] was 697 ± 169 µM, the kcat [5] was 0.60 ± 0.04 s⁻¹ and the kcat/Km [5] was 890 ± 180 M⁻¹ s⁻¹. The Km [6] was 24 µM and 24.4 µM, the kcat [6] was 1.9 s⁻¹ and 1.92 ± 0.01 s⁻¹ and the kcat/Km [6] was 78600 ± 0 M⁻¹ s⁻¹. For the same compound, the Km [7] was 6.8 ± 0.7 µM, the kcat [7] was 0.08 ± 0.00 s⁻¹ and the kcat/Km [7] was 12280 ± 710 M⁻¹ s⁻¹. It also gave a Km [8] of 9.42 ± 0.8 µM, a kcat [8] of 0.02 ± 0.00 s⁻¹ and a kcat/Km [8] of 1660 ± 120 M⁻¹ s⁻¹. For the same compound, the Km [9] was 66 µM and 65.6 µM, the kcat [9] was 0.5 s⁻¹ and 0.45 ± 0.02 s⁻¹ and the kcat/Km [9] was 6800 ± 180 M⁻¹ s⁻¹. The Km [10] was 1050 ± 58.5 µM, the kcat [10] was 0.88 ± 0.05 s⁻¹ and the kcat/Km [10] was 840 ± 20 M⁻¹ s⁻¹. It also gave a Km [11] of 43.9 ± 2.7 µM, a kcat [11] of 0.97 ± 0.02 s⁻¹ and a kcat/Km [11] of 22050 ± 1080 M⁻¹ s⁻¹. For the same compound, the Km [12] was 6 ± 0.8 µM, the kcat [12] was 0.20 ± 0.00 s⁻¹ and the kcat/Km [12] was 33600 ± 5100 M⁻¹ s⁻¹. The Km [13] was 154 ± 3.7 µM, the kcat [13] was 0.39 ± 0.01 s⁻¹ and the kcat/Km [13] was 2510 ± 30 M⁻¹ s⁻¹. For the same compound, the Km [14] was 6.3 ± 0.5 µM, the kcat/Km [14] was 37050 ± 2120 M⁻¹ s⁻¹ and the Km [15] was 227.4 ± 1.5 µM.
